Structures can show the parent of a compound that is named as a salt.
Each compound was assayed against T1, human Mnk2a (Homo sapiens, UniProt Q9HBH9) (assay: Mnk2a in vitro kinase assay (indirect fluorescence polarization)). Details: GST-Mnk2a pre-activated with ERK2, 20 μM ATP, 30 μM substrate peptide; read-out: MNK2 IC50.
T1 construct: made in house; host or cells: E. coli BL21 (vector pGEX-4T1)
Format: biochemical
Experimental: Inhibitory potency of compounds against Mnk1, Mnk2a and other kinases was assessed with assays based on a format known to those skilled in the art as the indirect (competitive) fluorescence polarization. The assay detection system comprises a small fluorophore-labeled phospho-peptide (termed ligand) bound to a phospho-specific antibody. The product generated by the kinase reaction competes with the ligand for antibody binding. Based on the larger molecular volume of the bound ligand, which results in a lower rotation rate in solution, its emitted light has a higher degree of polarization than the one from the free ligand.
As a source of enzyme, human Mnk1 and human Mnk2a were expressed as GST fusion proteins in E. coli, purified to >80% homogeneity by glutathione affinity chromatography and activated in vitro with pre-activated ERK2. In brief, the open reading frames of human Mnk1 and Mnk2a were amplified from cDNA using the forward/reverse primer pairs
(utilized restriction sites underlined), respectively, and cloned into the BamHI and SalI sites of the vector pGEX-4T1 (Amersham, Sweden, cat. no. 27-4580-01). These constructs allow prokaryotic expression of Mnk1 or Mnk2a as fusion protein with a N-terminal glutathione S-transferase (GST) tag, referred to as GST-Mnk1 or GST-Mnk2a. The following expression and purification procedure was identical for GST-Mnk1 and GST-Mnk2a, referring in general to GST-Mnk, when not distinguishing between the two isoforms. Expression of GST-Mnk was in E. coli BL21 (Merck Biosciences, Germany, cat. no. 69449). Cells were grown in LB-Bouillon (Merck, Germany, cat. no. 1.10285) supplemented with 100 μg/ml ampicillin (Sigma, Germany, cat. no. A9518) at 37° C. When the culture had reached a density corresponding to an A600 of 0.8, an equal volume of ice cold LB/ampicillin was added, the culture transferred to 25° C. and induced for 4 h with 1 mM isopropyl thiogalactoside (IPTG, Roth, Germany, cat. no. 2316.4). Cells harvested by centrifugation were resuspended in 10 ml lysis buffer (50 mM tris(hydroxymethyl)aminomethane hydrochloride (Tris/HCl, Sigma, Germany, cat. no. T5941) pH 7.5, 300 mM sodium chloride (NaCl, Sigma, Germany, cat. no. S7653), 5% (w/v) glycerol (Sigma, Germany, cat. no. G5516), 3 mM DTT dithiotreitol (DTT, Sigma, Germany, cat. no. D9779)) per gram wet weight cell pellet. Lysates were prepared by disruption of cells with a sonifier and subsequent clearing by centrifugation at 38000 g for 45 min at 4° C.
The lysate was applied to a GSTPrep FF 16/10 column (Amersham, Sweden, cat. no. 17-5234-01) equilibrated with lysis buffer. Removal of unbound material was with 3 column volumes (CV) lysis buffer. Elution was with 2 CV of elution buffer (50 mM Tris/HCl pH 7.5, 300 mM NaCl, 5% (w/v) glycerol, 20 mM glutathione (Sigma, Germany, cat. no. G4251)). Peak fractions were pooled and the protein transferred into storage buffer (50 mM Tris/HCl pH 7.5, 200 mM NaCl, 0.1 mM ethylene glycol-bis(2-aminoethylether)-N,N,N′,N′-tetraacetic acid (EGTA, Aldrich, Germany, cat. no. 23, 453-2), 1 mM DTT, 10% (w/v) glycerol, 0.5 M sucrose (Sigma, Germany, cat. no. SO389) by gel filtration on a PD10 desalting column (Amersham, Sweden, cat. no. 17-0851-01). Aliquots were shock frozen in liquid nitrogen and stored at −80° C.
Activation of Mnk1 and Mnk2a was at a concentration of 2.5 μM of either purified GST-Mnk1 or GST-Mnk2a by incubation with 150 nM pre-activated NHis-ERK2 (see ERK2 assay for preparation) and 50 μM adenosine triphosphate (ATP, Sigma, cat. no. A2699) in a buffer comprising 20 mM N-(2-hydroxyethyl)piperazine-N′-(2-ethanesulfonic acid) (HEPES, Fluka, Germany, cat. no 54459)/potassium hydroxide (KOH, Roth, Germany, cat. no 6751.1) pH 7.4, 10 mM magnesium chloride (MgCl2, Sigma, Germany, cat. no. M2670), 0.25 mM DTT, 0.05% (w/v) polyoxyethylene 20 stearylether (Brij 78, Sigma, Germany, cat. no. P4019) (HMDB buffer) for 45 min at 30° C. […]

T1 sequence (Q9HBH9 whole entry): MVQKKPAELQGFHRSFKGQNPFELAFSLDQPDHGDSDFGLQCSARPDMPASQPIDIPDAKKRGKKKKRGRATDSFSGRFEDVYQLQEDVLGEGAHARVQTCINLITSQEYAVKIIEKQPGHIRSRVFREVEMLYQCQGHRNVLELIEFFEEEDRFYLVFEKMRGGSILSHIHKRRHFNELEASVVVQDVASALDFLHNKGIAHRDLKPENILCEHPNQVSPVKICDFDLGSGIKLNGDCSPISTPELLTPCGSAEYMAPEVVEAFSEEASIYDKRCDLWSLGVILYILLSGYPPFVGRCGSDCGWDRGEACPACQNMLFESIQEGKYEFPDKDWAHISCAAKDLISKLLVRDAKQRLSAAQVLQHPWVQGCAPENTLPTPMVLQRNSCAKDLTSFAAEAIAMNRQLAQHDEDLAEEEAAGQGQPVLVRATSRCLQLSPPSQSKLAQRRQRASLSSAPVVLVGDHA

First: Cc1c(C(=O)NC2CCCNCC2)sc2ncnc(Nc3ccc(F)cc3OC3CCOC3)c12 (stereo in doubt) [Compound 277, 4-{4-Fluoro-2-[(R)-(tetrahydro-furan-3-yl)oxy]-phenylamino}-5-methyl-thieno[2,3-d]pyrimidine-6-carboxylic acid azepan-4-ylamide trifluoroacetate]
Second: Cc1c(C(=O)NC2CC2)sc2ncnc(Nc3ccc(F)cc3O[C@H]3CCCNC3)c12 [Example 17]
The IC50 of the first is 2-fold higher: 59 nM for the first, 30 nM for the second.

`Cc1c(C(=O)N[C@H]2CCC[C@@H]2O)sc2ncnc(Nc3cccnc3OC3CCOCC3)c12` [Compound 278, 5-Methyl-4-[2-(tetrahydro-pyran-4-yloxy)-pyridin-3-ylamino]-thieno[2,3-d]pyrimidine-6-carboxylic acid ((1S,2S)-2-hydroxy-cyclopentyl)-amide] and `Cc1c(C(=O)NCCC[S+](C)[O-])sc2ncnc(Nc3cccnc3OC3CCOCC3)c12` (stereo not shown) [Compound 282, 5-Methyl-4-[2-(tetrahydro-pyran-4-yloxy)-pyridin-3-ylamino]-thieno[2,3-d]pyrimidine-6-carboxylic acid (3-methanesulfinyl-propyl)-amide] are within 1.5-fold of each other in IC50: 79 nM for the first, 53 nM for the second.

Going from `COCCN1CCC[C@H](Oc2cc(F)ccc2Nc2ncnc3sc(C(N)=O)c(C)c23)C1` [Example 1, 4-{4-Fluoro-2-[(S)-1-(2-methoxy-ethyl)-piperidin-3-yloxy]-phenylamino}-5-methyl-thieno[2,3-d]pyrimidine-6-carboxylic acid amide] to `Cc1c(C(N)=O)sc2ncnc(Nc3ccc(F)cc3O[C@H]3CCCN(CCO)C3)c12` [Example 6, (S)-4-(4-fluoro-2-(1-(2-hydroxyethyl)piperidin-3-yloxy)phenylamino)-5-methylthieno[2,3-d]pyrimidine-6-carboxamide], the IC50 falls from 490 nM to 120 nM (4.1-fold). The second is the more potent here.

Compared with `Cc1c(C(N)=O)sc2ncnc(Nc3ccc(F)cc3O[C@H]3CCCN(CC(=O)N(C)C)C3)c12` [Example 2], `Cc1c(C(N)=O)sc2ncnc(Nc3ccc(F)cc3O[C@H]3CCCN(CC(C)C)C3)c12` [Example 7] is 9.4-fold higher in IC50: 470 nM for the first, 4400 nM for the second. The first is the more potent here.

First: Cc1c(C(N)=O)sc2ncnc(Nc3ccc(F)cc3O[C@H]3CCCN(CCC#N)C3)c12 [Example 3]
Second: Cc1c(C(N)=O)sc2ncnc(Nc3ccc(F)cc3O[C@H]3CCCN(CCC(F)(F)F)C3)c12 [Example 9]
The IC50 of the first is 1.5-fold lower: 120 nM for the first, 180 nM for the second. The first is the more potent here.

`Cc1c(C(N)=O)sc2ncnc(Nc3ccc(F)cc3O[C@H]3CCCN(Cc4ncon4)C3)c12` [Example 4] and `Cc1c(C(N)=O)sc2ncnc(Nc3ccc(F)cc3O[C@H]3CCCN(C)C3)c12` [Example 8] are within 1.5-fold of each other in IC50: 110 nM for the first, 80 nM for the second.

First: Cc1c(C(N)=O)sc2ncnc(Nc3ccc(F)cc3O[C@H]3CCCN(CC(F)(F)F)C3)c12 [Example 5]
Second: Cc1c(C(N)=O)sc2ncnc(Nc3ccc(F)cc3O[C@H]3CCCN(S(C)(=O)=O)C3)c12 [Example 10, (S)-4-(4-fluoro-2-(1-(methylsulfonyl)piperidin-3-yloxy)phenylamino)-5-methylthieno[2,3-d]pyrimidine-6-carboxamide]
The IC50 of the first is 11-fold higher: 110 nM for the first, 10 nM for the second.

Compared with `CNC(=O)c1sc2ncnc(Nc3ccc(F)cc3O[C@H]3CCCNC3)c2c1C` [Example 11, 4-[4-Fluoro-2-((S)-piperidin-3-yloxy)-phenylamino]-5-methyl-thieno[2,3-d]pyrimidine-6-carboxylic acid methylamide], `Cc1c(C(=O)NC(C)C)sc2ncnc(Nc3ccc(F)cc3O[C@H]3CCCNC3)c12` [Example 12] is 1.6-fold higher in IC50: 39 nM for the first, 61 nM for the second.

Compared with `COCCNC(=O)c1sc2ncnc(Nc3ccc(F)cc3O[C@H]3CCCNC3)c2c1C` [Example 13], `Cc1c(C(=O)NCCO)sc2ncnc(Nc3ccc(F)cc3O[C@H]3CCCNC3)c12` [Example 15] is 1.9-fold lower in IC50: 59 nM for the first, 31 nM for the second.

`Cc1c(C(=O)NCc2nccn2C)sc2ncnc(Nc3ccc(F)cc3O[C@H]3CCCNC3)c12` [Example 14] and `Cc1c(C(=O)NCc2ncco2)sc2ncnc(Nc3ccc(F)cc3OC3CCCNC3)c12` (stereo not shown) [Example 23] are within 1.5-fold of each other in IC50: 40 nM for the first, 48 nM for the second.

Going from `Cc1c(C(=O)NCCCO)sc2ncnc(Nc3ccc(F)cc3O[C@H]3CCCNC3)c12` [Example 16] to `Cc1c(C(=O)NCCF)sc2ncnc(Nc3ccc(F)cc3OC3CCCNC3)c12` (stereo not shown) [Example 18], the IC50 rises from 30 nM to 58 nM (1.9-fold). The first is the more potent here.

`Cc1c(C(=O)NCC2CC2)sc2ncnc(Nc3ccc(F)cc3OC3CCCNC3)c12` (stereo not shown) [Example 19] and `Cc1c(C(=O)NCC2CCCCC2)sc2ncnc(Nc3ccc(F)cc3OC3CCCNC3)c12` (stereo not shown) [Example 29] are within 1.5-fold of each other in IC50: 47 nM for the first, 53 nM for the second.

`CCC(C)CNC(=O)c1sc2ncnc(Nc3ccc(F)cc3OC3CCCNC3)c2c1C` (stereo not shown) [Example 20] and `CCC(CC)CNC(=O)c1sc2ncnc(Nc3ccc(F)cc3OC3CCCNC3)c2c1C` (stereo not shown) [Example 26] are within 1.5-fold of each other in IC50: 67 nM for the first, 60 nM for the second.

`Cc1c(C(=O)NCC(C)(C)C)sc2ncnc(Nc3ccc(F)cc3OC3CCCNC3)c12` (stereo not shown) [Example 21] and `Cc1c(C(=O)NCCOC(F)(F)F)sc2ncnc(Nc3ccc(F)cc3OC3CCCNC3)c12` (stereo not shown) [Example 38] are within 1.5-fold of each other in IC50: 76 nM for the first, 100 nM for the second.

`Cc1c(C(=O)NCc2ccco2)sc2ncnc(Nc3ccc(F)cc3OC3CCCNC3)c12` (stereo not shown) [Example 22] and `Cc1c(C(=O)NCc2cccs2)sc2ncnc(Nc3ccc(F)cc3OC3CCCNC3)c12` (stereo not shown) [Example 30] are within 1.5-fold of each other in IC50: 26 nM for the first, 34 nM for the second.

`Cc1c(C(=O)NCC2CCOC2)sc2ncnc(Nc3ccc(F)cc3OC3CCCNC3)c12` (stereo not shown) [Example 24] and `Cc1c(C(=O)NCC2CCOCC2)sc2ncnc(Nc3ccc(F)cc3OC3CCCNC3)c12` (stereo not shown) [Example 32] are within 1.5-fold of each other in IC50: 62 nM for the first, 55 nM for the second.

Compared with `Cc1c(C(=O)NCC2CCCO2)sc2ncnc(Nc3ccc(F)cc3OC3CCCNC3)c12` (stereo not shown) [Example 25], `Cc1c(C(=O)NCC2CCCCC2O)sc2ncnc(Nc3ccc(F)cc3OC3CCCNC3)c12` (stereo not shown) [Example 40] is 2.3-fold lower in IC50: 81 nM for the first, 35 nM for the second.

`Cc1c(C(=O)NCc2ccccc2)sc2ncnc(Nc3ccc(F)cc3OC3CCCNC3)c12` (stereo not shown) [Example 27] and `Cc1cccc(CNC(=O)c2sc3ncnc(Nc4ccc(F)cc4OC4CCCNC4)c3c2C)c1` (stereo not shown) [Example 33] are within 1.5-fold of each other in IC50: 48 nM for the first, 56 nM for the second.

`Cc1c(C(=O)NCCc2cn[nH]c2)sc2ncnc(Nc3ccc(F)cc3OC3CCCNC3)c12` (stereo not shown) [Example 28] and `Cc1c(C(=O)NCCc2cccs2)sc2ncnc(Nc3ccc(F)cc3OC3CCCNC3)c12` (stereo not shown) [Example 37] are within 1.5-fold of each other in IC50: 65 nM for the first, 68 nM for the second.

`Cc1c(C(=O)NCc2nccs2)sc2ncnc(Nc3ccc(F)cc3OC3CCCNC3)c12` (stereo not shown) [Example 31] and `Cc1c(C(=O)NCc2ccc(O)cc2)sc2ncnc(Nc3ccc(F)cc3OC3CCCNC3)c12` (stereo not shown) [Example 34] are within 1.5-fold of each other in IC50: 43 nM for the first, 35 nM for the second.

Compared with `Cc1c(C(=O)NCc2cccc(F)c2)sc2ncnc(Nc3ccc(F)cc3OC3CCCNC3)c12` (stereo not shown) [Example 35], `Cc1c(C(=O)NCc2ccccc2C#N)sc2ncnc(Nc3ccc(F)cc3OC3CCCNC3)c12` (stereo not shown) [Example 41] is 1.7-fold lower in IC50: 53 nM for the first, 31 nM for the second. The second is the more potent here.

Compared with `Cc1c(C(=O)N(C)CC2CCCCC2)sc2ncnc(Nc3ccc(F)cc3OC3CCCNC3)c12` (stereo not shown) [Example 36], `Cc1c(C(=O)NCCCC2CCOC2)sc2ncnc(Nc3ccc(F)cc3OC3CCCNC3)c12` (stereo not shown) [Example 39] is 14-fold lower in IC50: 790 nM for the first, 58 nM for the second. The second is the more potent here.

`Cc1c(C(=O)NCC(=O)c2ccccc2)sc2ncnc(Nc3ccc(F)cc3OC3CCCNC3)c12` (stereo not shown) [Example 42] and `Cc1c(C(=O)NCCNc2ccccc2)sc2ncnc(Nc3ccc(F)cc3OC3CCCNC3)c12` (stereo not shown) [Example 43] are within 1.5-fold of each other in IC50: 41 nM for the first, 56 nM for the second.
